Our source for the TGI and GI50 values is PubChem BioAssay (NCI).

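Grown in 96-well plates, cells were treated for 48 hours with each compound at five concentrations. Insufficient inhibition: endpoint recorded as highest concentration tested. GI50 = concentration required for 50% inhibition of growth. TGI: total growth inhibition.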

Among the test systems are 786-0 renal; CAKI-1 renal; CCRF-CEM leukemia; HOP-62 NSCLC; PC-3 prostate; RXF 393 renal; SF-539 CNS; SN12C renal; SNB-19 CNS; SW-620 colon.
What all share (assay): inhibition of tumour cell growth, NCI panel, 48 h

With `CCOC(=O)/C=C/CC(C)(C)CCOC(C)=O`, the TGI in the test on 786-0 renal, with CAKI-1 renal, in the test with CCRF-CEM leukemia, in the test with HOP-62 NSCLC, with PC-3 prostate and with RXF 393 renal was above 10 µM in each case. For the same compound, the TGI in the test on SF-539 CNS, in the test with SN12C renal, in the test with SNB-19 CNS and in the test on SW-620 colon was above 10 µM in each case.
With `O=C(Nc1ccc(F)cc1)Nc1ccc(Cl)c([N+](=O)[O-])c1`, the GI50 is 3.37 µM with 786-0 renal; 3.3 µM in the test on CCRF-CEM leukemia; 3.78 µM in the test with HOP-62 NSCLC; 1.6 µM in the test with PC-3 prostate; 1.75 µM with RXF 393 renal; 3.86 µM in the test on SF-539 CNS. Besides, the GI50 was 2.95 µM in the test on SN12C renal, 3.54 µM in the test with SNB-19 CNS and 3.45 µM in the test on SW-620 colon. The TGI with 786-0 renal is 13.2 µM; in the test with CCRF-CEM leukemia it was above 100 µM; in the test with HOP-62 NSCLC it was 15.9 µM; in the test on PC-3 prostate it was 11.1 µM; in the test on RXF 393 renal, 6.71 µM; in the test on SF-539 CNS it was 14.3 µM. The TGI with SN12C renal was 11.7 µM; in the test on SNB-19 CNS, 14.3 µM; in the test with SW-620 colon, 13.9 µM.
`CC1CCc2nc[nH]c(=O)c21` (stereo unspecified): the GI50 in the test on 786-0 renal, with CAKI-1 renal, in the test on CCRF-CEM leukemia, in the test on HOP-62 NSCLC, with PC-3 prostate and with RXF 393 renal was above 100 µM each time. The GI50 with SF-539 CNS, with SN12C renal, in the test with SNB-19 CNS and with SW-620 colon was above 100 µM each time. Moreover, the TGI in the test with 786-0 renal, with CAKI-1 renal, in the test with CCRF-CEM leukemia, with HOP-62 NSCLC, with PC-3 prostate and in the test on RXF 393 renal was above 100 µM throughout. The TGI with SF-539 CNS, in the test with SN12C renal, in the test on SNB-19 CNS and with SW-620 colon was above 100 µM throughout.
Take `COC1/C=C/OC2(C)Oc3c(C)c(O)c4c(O)c(c(/C=N/Nc5ccc([N+](=O)[O-])cc5[N+](=O)[O-])c(O)c4c3C2=O)NC(=O)C(C)=C/C=C/C(C)C(O)C(C)C(O)C(C)C(OC(C)=O)C1C` (stereo unspecified): the GI50 in the test on 786-0 renal is 1.67 µM; in the test with CAKI-1 renal, 2.9 µM; in the test on CCRF-CEM leukemia it was 1.55 µM; in the test with HOP-62 NSCLC it was 2.47 µM; with PC-3 prostate it was 1.34 µM; in the test with RXF 393 renal, 0.899 µM. Further, the GI50 with SF-539 CNS was 1.9 µM; in the test on SN12C renal, 10.2 µM; in the test with SNB-19 CNS it was 3.92 µM; with SW-620 colon it was 1.19 µM. The TGI was 7.02 µM with 786-0 renal; above 50 µM in the test with CAKI-1 renal; above 50 µM in the test with CCRF-CEM leukemia; 25.5 µM in the test on HOP-62 NSCLC; 3.92 µM with PC-3 prostate; 1.66 µM in the test on RXF 393 renal. The TGI in the test on SF-539 CNS was 19.4 µM; in the test with SN12C renal it was above 50 µM; with SNB-19 CNS, 18.1 µM; with SW-620 colon, 2.96 µM.
`CC(C)=CCC\C(C)=C/C=C/C(C)=C\C=C\C(C)=C/C=C/C=C(C)\C=C\C=C(C)/C=C/C=C(/C)CCC=C(C)C`: the TGI with 786-0 renal, in the test on CAKI-1 renal, in the test with CCRF-CEM leukemia, in the test with HOP-62 NSCLC, in the test with PC-3 prostate and with RXF 393 renal was above 100 µM in each case. The TGI with SF-539 CNS, in the test with SN12C renal, in the test on SNB-19 CNS and in the test on SW-620 colon was above 100 µM throughout.
For `C=C(C)C(OC)C(O)CC1(C)CC(O)CC(C)(C2CCC3OC(C4(C)CCC(Br)C(C)(C)O4)CCC3(C)O2)O1` (stereo unspecified), the GI50 with 786-0 renal was 17.8 µM; in the test on CAKI-1 renal, 18.1 µM; in the test on CCRF-CEM leukemia it was 21.3 µM; in the test with HOP-62 NSCLC, 17.4 µM; with PC-3 prostate, 15.4 µM; in the test with RXF 393 renal it was 18.3 µM. Also, the GI50 in the test with SF-539 CNS is 18.9 µM; in the test with SN12C renal it was 18.3 µM; with SNB-19 CNS it was 3.28 µM; in the test on SW-620 colon, 21 µM. In addition, the TGI in the test with 786-0 renal came to 33.6 µM; in the test with CAKI-1 renal it was 38.3 µM; in the test with CCRF-CEM leukemia, 55.8 µM; in the test with HOP-62 NSCLC, 32.6 µM; with PC-3 prostate it was 32.4 µM; in the test with RXF 393 renal, 40.4 µM. Besides, the TGI was determined as 36.5 µM in the test on SF-539 CNS, 39.4 µM with SN12C renal, 39 µM in the test with SNB-19 CNS and 45.4 µM in the test on SW-620 colon.
Turning to `COc1cc2c(cc1OCCCCN1CCN(CC(=O)Nc3ccc(Cl)cc3C(=O)c3ccccc3Cl)CC1)N=CC1CCCN1C2=O` (stereo unspecified), the GI50 in the test with 786-0 renal was 0.205 µM; with CAKI-1 renal it was 0.28 µM; with CCRF-CEM leukemia, 0.159 µM; with HOP-62 NSCLC, 0.196 µM; with PC-3 prostate it was 0.238 µM; with RXF 393 renal, 0.186 µM. Also, the GI50 in the test on SF-539 CNS is 0.236 µM; with SN12C renal it was 0.297 µM; with SNB-19 CNS it was 0.36 µM; in the test on SW-620 colon it was 0.238 µM. Also, the TGI with 786-0 renal was 0.456 µM; with CAKI-1 renal, 0.676 µM; in the test with CCRF-CEM leukemia it was 0.434 µM; in the test with HOP-62 NSCLC, 0.411 µM; with PC-3 prostate it was 0.547 µM; in the test with RXF 393 renal it was 0.388 µM. Besides, the TGI in the test on SF-539 CNS was 0.501 µM; in the test on SN12C renal, 1.14 µM; with SNB-19 CNS, 1.15 µM; with SW-620 colon it was 0.726 µM.
`c1ccc(-c2nc(-c3ccccc3SSc3ccccc3-c3nc(-c4ccccc4)nn3-c3ccccc3)n(-c3ccccc3)n2)cc1`: the TGI with 786-0 renal, in the test with CAKI-1 renal, with CCRF-CEM leukemia, in the test with PC-3 prostate, with RXF 393 renal and in the test with SF-539 CNS was above 100 µM in each case. Further, the TGI in the test with SN12C renal, with SNB-19 CNS and in the test on SW-620 colon was above 100 µM throughout.
`C[N+](C)(C)CC(=O)N/N=C(/CC(=O)CC(C1=C(O)c2ccccc2OC1)c1ccccc1)C(=O)Nc1cccc(Cl)c1` (stereo unspecified): the TGI with 786-0 renal, in the test with CAKI-1 renal, in the test with CCRF-CEM leukemia, in the test with HOP-62 NSCLC, with PC-3 prostate and in the test on RXF 393 renal was above 100 µM throughout. Also, the TGI in the test on SF-539 CNS, in the test with SN12C renal and in the test with SW-620 colon was above 100 µM throughout.
